Assay results taken from patent US9458153B2, “Dihydroquinolizinones for the treatment and prophylaxis of hepatitis B virus infection” (Hoffmann-La Roche Inc., priority 2014, dated 2016).
Where a name gives a salt, the structure may show the parent alone.

Tests used:
HBV DNA = HBV DNA assay (real-time qPCR/TaqMan of extracellular HBV DNA copy number, HepG2.2.15 cells); type: cell-based; settings: Anti HBV DNA production activity in HepG2.2.15 cells, supernatant collected six days after initial administration
Description: HepG2.2.15 cells (Acs et al. Proc Natl Acad Sci USA, 84, (1987), 4641-4), a constitutively HBV-expressing cell line were cultured in DMEM+Glutamax-I medium (Invitrogen, Carlsbad, Calif., USA), supplemented with 10% fetal bovine serum (Invitrogen) and G418 (Invitrogen) at a final concentration of 200 mg/L and maintained in 5% CO2 at 37° C.
The assay employs real-time qPCR (TaqMan) to directly measure extracellular HBV DNA copy number. HepG2.2.15 cells were plated in 96-well microtiter plates. Only the interior wells were utilized to reduce “edge effects” observed during cell culture, the exterior wells were filled with complete medium to help minimize sample evaporation. On the following day, the HepG2.2.15 cells were washed and the medium was replaced with complete medium containing various concentrations of a test compound in triplicate. 3TC was used as the positive control, while media alone was added to cells as a negative control (virus control, VC). Three days later, the culture medium was replaced with fresh medium containing the appropriately diluted drug. Six days following the initial administration of the test compound, the cell culture supernatant was collected, treated with pronase and then used in a real-time qPCR/TaqMan assay to determine HBV DNA copy numbers. Antiviral activity was calculated from the reduction in HBV DNA levels (IC50).
The compounds of the present invention were tested for their capacity to inhibit HBV DNA as described herein.

HBsAg = HBsAg assay (chemiluminescence immunoassay of secreted HBsAg in HepG2.2.15 culture supernatant); type: cell-based, HBV; settings: HepG2.2.15 cells, CLIA kit
Procedure, shortened: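 IC50 came from dose-response curves of HBsAg in culture supernatant, measured semi-quantitatively by chemiluminescent immunoassay. The HBV-producing HepG2.2.15 line was dosed in duplicate with a three-fold compound dilution series, with DMSO at 1% final and DMSO alone as the no-drug control.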

[1] = Hepatitis B virus, HepG2.2.15, 144 h
[2] = HBsAg secretion reduced by 50% vs no drug control
[3] = Hepatitis B virus, HepG2.2.15, HBsAg secretion reduced by 50% vs no drug control
[4] = HBsAg secretion reduced by 50% vs no drug control, hydrochloride

CCOc1cc2c(cc1OCC)-c1cc(=O)c(C(=O)O)cn1C(CC)C2 (single isomer, unassigned; (+)) [Example 6, (+)-9,10-diethoxy-6-ethyl-2-oxo-6,7-dihydrobenzo[a]quinolizine-3-carboxylic acid]
IC50 (HBV DNA): 0.006 µM

CCC1Cc2cc(OCC(F)(F)F)c(OC)cc2-c2cc(=O)c(C(=O)O)cn21 (single isomer, unassigned; (+)) [Example 11, (+)-6-ethyl-10-methoxy-2-oxo-9-(2,2,2-trifluoroethoxy)-6,7-dihydrobenzo[a]quinolizine-3-carboxylic acid]
IC50 (HBV DNA; [1]): 0.004 µM
IC50 (HBsAg; [2]): 0.017 µM

CCCOc1cc2c(cc1OC)-c1cc(=O)c(C(=O)O)cn1C(CC)C2 (single isomer, unassigned; (+)) [Example 79, (+)-6-ethyl-10-methoxy-2-oxo-9-propoxyl-6,7-dihydrobenzo[a]quinolizine-3-carboxylic acid]
IC50 (HBV DNA; [1]): 0.002 µM
IC50 (HBsAg; [2]): 0.004 µM

COc1cc2c(cc1OC)-c1cc(=O)c(C(=O)O)cn1C(C(C)C)C2 (single isomer, unassigned; (+)) [Example 99, (+)-6-isopropyl-9,10-dimethoxy-2-oxo-6,7-dihydrobenzo[a]quinolizine-3-carboxylic acid]
IC50 (HBV DNA; [1]): 0.003 µM
IC50 (HBsAg; [2]): 0.016 µM

CCCOc1cc2c(cc1OC)-c1cc(=O)c(C(=O)O)cn1C(CC)C2 (centres unmarked) [Example 78, 6-ethyl-10-methoxy-2-oxo-9-propoxy-6,7-dihydrobenzo[a]quinolizine-3-carboxylic acid]
IC50 (HBV DNA): 0.004 µM

COc1cc2c(cc1OCCCCCNC(C)=O)CC(C(C)(C)C)n1cc(C(=O)O)c(=O)cc1-2 (centres unmarked) [Example 175, 9-(5-acetamidopentoxy)-6-tert-butyl-10-methoxy-2-oxo-6,7-dihydrobenzo[a]quinolizine-3-carboxylic acid]
IC50 (HBsAg; [3]): 0.033 µM

COc1cc2c(cc1OCCCCCNS(C)(=O)=O)CC(C(C)(C)C)n1cc(C(=O)O)c(=O)cc1-2 (centres unmarked) [Example 176, 6-tert-butyl-9-[5-(methanesulfonamido)pentoxy]-10-methoxy-2-oxo-6,7-dihydrobenzo[a]quinolizine-3-carboxylic acid]
IC50 (HBsAg; [3]): 0.003 µM

COc1cc2c(cc1OCCN)CC(C(C)(C)C)n1cc(C(=O)O)c(=O)cc1-2 (centres unmarked) [Example 177, 9-(2-aminoethoxy)-6-tert-butyl-10-methoxy-2-oxo-6,7-dihydrobenzo[a]quinolizine-3-carboxylic acid]
IC50 (HBsAg; [3]): 1.38 µM

COc1cc2c(cc1OCCCOCCN)CC(C(C)(C)C)n1cc(C(=O)O)c(=O)cc1-2 (centres unmarked) [Example 178, 9-[3-(2-aminoethoxy)propoxy]-6-tert-butyl-10-methoxy-2-oxo-6,7-dihydrobenzo[a]quinolizine-3-carboxylic acid]
IC50 (HBsAg; [3]): 0.063 µM

CCNCCOCCCOc1cc2c(cc1OC)-c1cc(=O)c(C(=O)O)cn1C(C(C)(C)C)C2 (centres unmarked) [Example 179, 6-tert-butyl-9-[3-[2-(ethylamino)ethoxy]propoxy]-10-methoxy-2-oxo-6,7-dihydrobenzo[a]quinolizine-3-carboxylic acid]
IC50 (HBsAg; [3]): 0.038 µM

COc1cc2c(cc1OCCC(F)F)CC(C(C)(C)C)n1cc(C(=O)O)c(=O)cc1-2 (centres unmarked) [Example 180, 6-tert-butyl-9-(3,3-difluoropropoxy)-10-methoxy-2-oxo-6,7-dihydrobenzo[a]quinolizine-3-carboxylic acid]
IC50 (HBsAg; [3]): 0.004 µM

CCC(F)(F)Oc1cc2c(cc1OC)-c1cc(=O)c(C(=O)O)cn1C(C(C)(C)C)C2 (centres unmarked) [Example 181, 6-tert-butyl-9-(1,1-difluoropropoxy)-10-methoxy-2-oxo-6,7-dihydrobenzo[a]quinolizine-3-carboxylic acid]
IC50 (HBsAg; [3]): 0.012 µM

C=CC(F)(F)Oc1cc2c(cc1OC)-c1cc(=O)c(C(=O)O)cn1C(C(C)(C)C)C2 (centres unmarked) [Example 182, 6-tert-butyl-9-(1,1-difluoroallyloxy)-10-methoxy-2-oxo-6,7-dihydrobenzo[a]quinolizine-3-carboxylic acid]
IC50 (HBsAg; [3]): 0.016 µM

COc1cc2c(cc1OCCCSC)CC(C(C)(C)C)n1cc(C(=O)O)c(=O)cc1-2 (centres unmarked) [Example 183, 6-tert-butyl-10-methoxy-9-(3-methylsulfanylpropoxy)-2-oxo-6,7-dihydrobenzo[a]quinolizine-3-carboxylic acid]
IC50 (HBsAg; [2]): 0.002 µM

COc1cc2c(cc1OCCCS(C)(=O)=O)CC(C(C)(C)C)n1cc(C(=O)O)c(=O)cc1-2 (centres unmarked) [Example 186, 6-tert-butyl-10-methoxy-9-(3-methylsulfonylpropoxy)-2-oxo-6,7-dihydrobenzo[a]quinolizine-3-carboxylic acid]
IC50 (HBsAg; [2]): 0.02 µM

COc1cc2c(cc1OCCN1CCOCC1)CC(C(C)(C)C)n1cc(C(=O)O)c(=O)cc1-2 (centres unmarked) [Example 189, 6-tert-butyl-10-methoxy-9-(2-morpholinoethoxy)-2-oxo-6,7-dihydrobenzo[a]quinolizine-3-carboxylic acid hydrochloride]
IC50 (HBsAg; [4]): 0.018 µM

COc1cc2c(cc1OCCCN1CCOCC1)CC(C(C)(C)C)n1cc(C(=O)O)c(=O)cc1-2 (centres unmarked) [Example 192, 6-tert-butyl-10-methoxy-9-(3-morpholinopropoxy)-2-oxo-6,7-dihydrobenzo[a]quinolizine-3-carboxylic acid hydrochloride]
IC50 (HBsAg; [4]): 0.01 µM

COc1cc2c(cc1OCCCN1CCCC1=O)CC(C(C)(C)C)n1cc(C(=O)O)c(=O)cc1-2 (centres unmarked) [Example 195, 6-tert-butyl-10-methoxy-2-oxo-9-[3-(2-oxopyrrolidin-1-yl)propoxy]-6,7-dihydrobenzo[a]quinolizine-3-carboxylic acid]
IC50 (HBsAg; [3]): 0.057 µM

COc1cc2c(cc1OCCCN1CCCC1)CC(C(C)(C)C)n1cc(C(=O)O)c(=O)cc1-2 (centres unmarked) [Example 196, 6-tert-butyl-10-methoxy-2-oxo-9-(3-pyrrolidin-1-ylpropoxy)-6,7-dihydrobenzo[a]quinolizine-3-carboxylic acid]
IC50 (HBsAg; [3]): 0.12 µM

COCCCOc1cc2c(cc1OC)-c1cc(=O)c(C(=O)O)cn1C(C1CCC1)C2 (centres unmarked) [Example 197, 6-cyclobutyl-10-methoxy-9-(3-methoxypropoxy)-2-oxo-6,7-dihydrobenzo[a]quinolizine-3-carboxylic acid]
IC50 (HBsAg; [3]): 0.003 µM

COc1cc2c(cc1OC)-c1cc(=O)c(C(=O)O)cn1C(CC(F)(F)F)C2 (centres unmarked) [Example 198, 9,10-dimethoxy-2-oxo-6-(2,2,2-trifluoroethyl)-6,7-dihydrobenzo[a]quinolizine-3-carboxylic acid]
IC50 (HBsAg; [3]): 0.23 µM

COCCCOc1cc2c(cc1OC)-c1cc(=O)c(C(=O)O)cn1C(CC(F)(F)F)C2 (centres unmarked) [Example 199, 10-methoxy-9-(3-methoxypropoxy)-2-oxo-6-(2,2,2-trifluoroethyl)-6,7-dihydrobenzo[a]quinolizine-3-carboxylic acid]
IC50 (HBsAg; [2]): 0.033 µM

COCCCOc1cc2c(cc1Cl)-c1cc(=O)c(C(=O)O)cn1C(C(C)(C)C)C2 (centres unmarked) [Example 202, 6-tert-butyl-10-chloro-9-(3-methoxypropoxy)-2-oxo-6,7-dihydrobenzo[a]quinolizine-3-carboxylic acid]
IC50 (HBsAg; [2]): 0.002 µM

COCCCOc1cc2c(cc1Cl)-c1cc(=O)c(C(=O)O)cn1C(C1(C)CC1)C2 (centres unmarked) [Example 205, 10-chloro-9-(3-methoxypropoxy)-6-(1-methylcyclopropyl)-2-oxo-6,7-dihydrobenzo[a]quinolizine-3-carboxylic acid]
IC50 (HBsAg; [2]): 0.001 µM

COc1cc2c(cc1OC)-c1cc(=O)c(C(=O)O)cn1C(Cc1ccccc1)C2 (centres unmarked) [Example 211, 6-benzyl-9,10-dimethoxy-2-oxo-6,7-dihydrobenzo[a]quinolizine-3-carboxylic acid]
IC50 (HBsAg; [3]): 8.25 µM

COCCCOc1cc2c(c(F)c1F)-c1cc(=O)c(C(=O)O)cn1C(C(C)C)C2 (centres unmarked) [Example 213, 10,11-difluoro-6-isopropyl-9-(3-methoxypropoxy)-2-oxo-6,7-dihydrobenzo[a]quinolizine-3-carboxylic acid]
IC50 (HBsAg; [2]): 0.024 µM

COc1cc2c(cc1OCCCn1cccn1)CC(C(C)(C)C)n1cc(C(=O)O)c(=O)cc1-2 (centres unmarked) [Example 216, 6-tert-butyl-10-methoxy-2-oxo-9-(3-pyrazol-1-ylpropoxy)-6,7-dihydrobenzo[a]quinolizine-3-carboxylic acid]
IC50 (HBsAg; [3]): 0.006 µM

COc1cc2c(cc1OCCCn1cncn1)CC(C(C)(C)C)n1cc(C(=O)O)c(=O)cc1-2 (centres unmarked) [Example 217, 6-tert-butyl-10-methoxy-2-oxo-9-[3-(1,2,4-triazol-1-yl)propoxy]-6,7-dihydrobenzo[a]quinolizine-3-carboxylic acid]
IC50 (HBsAg; [3]): 0.034 µM

COc1cc2c(cc1OCCCC(=O)O)CC(C(C)(C)C)n1cc(C(=O)O)c(=O)cc1-2 (centres unmarked) [Example 218, 6-tert-butyl-9-(3-carboxypropoxy)-10-methoxy-2-oxo-6,7-dihydrobenzo[a]quinolizine-3-carboxylic acid]
IC50 (HBsAg; [3]): 0.145 µM
